Results taken from ChEMBL document CHEMBL1201862, “PubChem BioAssay data set” (2004).
Several values for one entry are separate records, joined by “and”; a condition that tells them apart may be missing. Identical values can stand only once. Activity calls are given as the source filed them.

Columns and labels:
[1] = Shn3 3'UTR reporter inhibitors, dose response, cell-based, Clone20 osteoblasts, firefly luciferase, cherry-picked (AID 624132); format: functional;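 note: firefly luciferase luminescence from reporter carrying the Shn3 3'UTR in osteoblasts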
[2] = inhibitors of control Renilla luciferase reporter, dose response, counter-screen for Shn3 3'UTR targeting project, Clone20-Shn3RL cells, dual-Glo, cherry-pick, set 2 (AID 720724); format: functional, cell-based; conditions: Dual-Go Shn3RL
[3] = reduction of Shn3 3'UTR firefly luciferase signal, dose response, Schnurri-3 inhibitor project, cell-based, Clone20 osteoblasts, cherry-pick, set 2 (AID 720490); format: functional;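 note: actives lower the luminescence signal as inhibitors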
[4] = target: Neurotensin receptor type 1 (Homo sapiens, UniProt P30989); format: functional;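 note: Image-based confirmatory dose-response assay measuring agonist activity at NTR1; NTR1-expressing U2OS osteosarcoma cells imaged for beta-arrestin GFP spot formation; agonist potency where compounds increase beta-arrestin recruitment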
Neurotensin receptor type 1, sequence (P30989 whole entry): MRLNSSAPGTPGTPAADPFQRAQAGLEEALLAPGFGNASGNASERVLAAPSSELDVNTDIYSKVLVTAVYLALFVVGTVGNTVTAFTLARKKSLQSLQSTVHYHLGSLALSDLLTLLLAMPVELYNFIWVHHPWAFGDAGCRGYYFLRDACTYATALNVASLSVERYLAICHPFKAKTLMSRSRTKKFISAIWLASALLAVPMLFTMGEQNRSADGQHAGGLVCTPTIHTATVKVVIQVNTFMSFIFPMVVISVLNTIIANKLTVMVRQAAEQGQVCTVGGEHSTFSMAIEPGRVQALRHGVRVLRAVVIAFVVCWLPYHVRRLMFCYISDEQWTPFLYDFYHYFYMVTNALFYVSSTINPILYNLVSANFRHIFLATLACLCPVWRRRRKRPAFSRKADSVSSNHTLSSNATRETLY

[5] = target: T1, Heat shock factor protein 1 (Mus musculus, UniProt P38532); assay: inhibition of MG132-induced HSE-luciferase signal, confirmation, cell-based, NIH3T3, luminescence, dose retest (AID 2382); format: functional;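 note: NIH3T3 fibroblasts with HSF1-driven luciferase reporter stressed by proteasome inhibitor MG132; luminescence from HSF1-driven luciferase expression after 8 hours of MG132 stress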
T1 sequence (P38532 whole entry): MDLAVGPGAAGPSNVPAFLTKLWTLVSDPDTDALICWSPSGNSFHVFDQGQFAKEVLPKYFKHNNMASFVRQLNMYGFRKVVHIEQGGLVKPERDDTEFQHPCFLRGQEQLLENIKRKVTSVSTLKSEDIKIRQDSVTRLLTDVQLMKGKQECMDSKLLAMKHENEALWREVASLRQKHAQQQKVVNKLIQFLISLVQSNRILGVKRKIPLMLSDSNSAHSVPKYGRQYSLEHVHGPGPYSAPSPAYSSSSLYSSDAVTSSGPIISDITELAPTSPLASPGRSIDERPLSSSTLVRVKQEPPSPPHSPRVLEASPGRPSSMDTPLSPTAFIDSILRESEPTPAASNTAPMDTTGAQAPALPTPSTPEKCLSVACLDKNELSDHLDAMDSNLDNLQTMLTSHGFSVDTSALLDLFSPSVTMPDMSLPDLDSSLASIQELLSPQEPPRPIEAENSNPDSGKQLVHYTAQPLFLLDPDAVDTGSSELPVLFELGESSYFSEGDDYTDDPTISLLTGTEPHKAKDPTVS

[6] = target: COUP transcription factor 2 (Homo sapiens, UniProt P24468); assay: Luminescence-based cell-based high throughput dose response assay to identify inhibitors of COUP-TFII (NR2F2).; format: functional;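 note: HEK293 cells transiently cotransfected with COUP-TFII expression vector and reporter; luciferase reporter luminescence driven by COUP-TFII from the pX2-168 reporter plasmid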
COUP transcription factor 2, sequence (P24468 whole entry): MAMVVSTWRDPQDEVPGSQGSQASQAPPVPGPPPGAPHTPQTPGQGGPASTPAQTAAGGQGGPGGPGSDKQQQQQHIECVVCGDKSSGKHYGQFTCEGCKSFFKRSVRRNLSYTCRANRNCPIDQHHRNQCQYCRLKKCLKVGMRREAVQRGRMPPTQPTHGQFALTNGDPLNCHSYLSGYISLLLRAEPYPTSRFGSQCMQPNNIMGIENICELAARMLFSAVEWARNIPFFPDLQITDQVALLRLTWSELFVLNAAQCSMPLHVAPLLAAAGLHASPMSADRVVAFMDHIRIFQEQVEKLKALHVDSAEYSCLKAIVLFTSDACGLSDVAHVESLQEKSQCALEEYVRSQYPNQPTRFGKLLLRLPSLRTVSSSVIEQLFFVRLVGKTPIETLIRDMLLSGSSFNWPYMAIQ

[7] = target: NAD-dependent protein deacylase sirtuin-5, mitochondrial (Homo sapiens, UniProt Q9NXA8); assay: SIRT5 desuccinylase inhibitors, dose response, biochemical, fluorescence imaging, cherry-pick, set 5 (AID 720591);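 note: desuccinylation of succinyl peptide AMC substrate read as fluorescence after trypsin release; potency of inhibitors that lower fluorescence and may act on trypsin instead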
[8] = THP-1 cell cytotoxicity, dose response, cytotoxicity control for Vif-APOBEC3G degradation inhibitor project, THP-1 cells (AID 1117359); format: functional; conditions: Human immunodeficiency virus 1, THP-1
[9] = target: T2, Histone-lysine N-methyltransferase NSD2 (Homo sapiens, UniProt O96028); format: biochemical
T2 sequence (O96028 whole entry): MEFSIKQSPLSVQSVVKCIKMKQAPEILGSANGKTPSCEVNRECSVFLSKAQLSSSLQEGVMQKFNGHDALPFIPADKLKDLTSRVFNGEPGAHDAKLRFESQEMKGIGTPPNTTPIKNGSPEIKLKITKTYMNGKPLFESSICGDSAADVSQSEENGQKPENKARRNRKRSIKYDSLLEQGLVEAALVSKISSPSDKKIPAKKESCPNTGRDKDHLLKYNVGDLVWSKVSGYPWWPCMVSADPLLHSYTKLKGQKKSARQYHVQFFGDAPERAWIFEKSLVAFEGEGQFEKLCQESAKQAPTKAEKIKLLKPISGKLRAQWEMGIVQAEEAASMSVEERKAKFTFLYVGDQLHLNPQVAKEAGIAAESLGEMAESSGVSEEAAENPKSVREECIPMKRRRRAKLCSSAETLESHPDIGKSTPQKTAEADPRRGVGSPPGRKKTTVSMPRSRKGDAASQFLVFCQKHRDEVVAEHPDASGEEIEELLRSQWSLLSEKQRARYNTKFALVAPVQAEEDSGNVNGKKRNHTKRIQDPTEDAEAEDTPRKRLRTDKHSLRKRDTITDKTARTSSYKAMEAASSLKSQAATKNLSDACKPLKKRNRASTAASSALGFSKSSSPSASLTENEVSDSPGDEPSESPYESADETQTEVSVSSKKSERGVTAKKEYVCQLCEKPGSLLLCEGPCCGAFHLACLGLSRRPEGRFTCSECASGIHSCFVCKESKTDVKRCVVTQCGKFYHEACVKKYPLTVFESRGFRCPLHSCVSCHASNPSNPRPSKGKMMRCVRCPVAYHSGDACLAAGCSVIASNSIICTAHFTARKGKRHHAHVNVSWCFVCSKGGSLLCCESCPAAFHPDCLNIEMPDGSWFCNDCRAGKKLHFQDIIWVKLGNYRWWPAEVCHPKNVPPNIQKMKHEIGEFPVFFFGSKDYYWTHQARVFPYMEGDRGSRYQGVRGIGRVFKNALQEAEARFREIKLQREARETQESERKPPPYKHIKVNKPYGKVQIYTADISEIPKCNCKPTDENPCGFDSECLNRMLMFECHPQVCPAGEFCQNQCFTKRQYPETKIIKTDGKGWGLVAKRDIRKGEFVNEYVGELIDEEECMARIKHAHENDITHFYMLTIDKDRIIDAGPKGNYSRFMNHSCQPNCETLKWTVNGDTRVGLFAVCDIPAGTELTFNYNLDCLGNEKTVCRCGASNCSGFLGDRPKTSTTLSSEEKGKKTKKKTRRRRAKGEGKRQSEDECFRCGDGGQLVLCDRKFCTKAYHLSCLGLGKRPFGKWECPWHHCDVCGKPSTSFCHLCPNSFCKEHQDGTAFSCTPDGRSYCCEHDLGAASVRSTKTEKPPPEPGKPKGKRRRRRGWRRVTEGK

[10] = target: 1-phosphatidylinositol 4,5-bisphosphate phosphodiesterase beta-3 (Homo sapiens, UniProt Q01970); assay: Fluorescence-based biochemical high throughput dose response assay to identify inhibitors of phospholipase C isozymes (PLC-B3).
1-phosphatidylinositol 4,5-bisphosphate phosphodiesterase beta-3, sequence (Q01970 whole entry): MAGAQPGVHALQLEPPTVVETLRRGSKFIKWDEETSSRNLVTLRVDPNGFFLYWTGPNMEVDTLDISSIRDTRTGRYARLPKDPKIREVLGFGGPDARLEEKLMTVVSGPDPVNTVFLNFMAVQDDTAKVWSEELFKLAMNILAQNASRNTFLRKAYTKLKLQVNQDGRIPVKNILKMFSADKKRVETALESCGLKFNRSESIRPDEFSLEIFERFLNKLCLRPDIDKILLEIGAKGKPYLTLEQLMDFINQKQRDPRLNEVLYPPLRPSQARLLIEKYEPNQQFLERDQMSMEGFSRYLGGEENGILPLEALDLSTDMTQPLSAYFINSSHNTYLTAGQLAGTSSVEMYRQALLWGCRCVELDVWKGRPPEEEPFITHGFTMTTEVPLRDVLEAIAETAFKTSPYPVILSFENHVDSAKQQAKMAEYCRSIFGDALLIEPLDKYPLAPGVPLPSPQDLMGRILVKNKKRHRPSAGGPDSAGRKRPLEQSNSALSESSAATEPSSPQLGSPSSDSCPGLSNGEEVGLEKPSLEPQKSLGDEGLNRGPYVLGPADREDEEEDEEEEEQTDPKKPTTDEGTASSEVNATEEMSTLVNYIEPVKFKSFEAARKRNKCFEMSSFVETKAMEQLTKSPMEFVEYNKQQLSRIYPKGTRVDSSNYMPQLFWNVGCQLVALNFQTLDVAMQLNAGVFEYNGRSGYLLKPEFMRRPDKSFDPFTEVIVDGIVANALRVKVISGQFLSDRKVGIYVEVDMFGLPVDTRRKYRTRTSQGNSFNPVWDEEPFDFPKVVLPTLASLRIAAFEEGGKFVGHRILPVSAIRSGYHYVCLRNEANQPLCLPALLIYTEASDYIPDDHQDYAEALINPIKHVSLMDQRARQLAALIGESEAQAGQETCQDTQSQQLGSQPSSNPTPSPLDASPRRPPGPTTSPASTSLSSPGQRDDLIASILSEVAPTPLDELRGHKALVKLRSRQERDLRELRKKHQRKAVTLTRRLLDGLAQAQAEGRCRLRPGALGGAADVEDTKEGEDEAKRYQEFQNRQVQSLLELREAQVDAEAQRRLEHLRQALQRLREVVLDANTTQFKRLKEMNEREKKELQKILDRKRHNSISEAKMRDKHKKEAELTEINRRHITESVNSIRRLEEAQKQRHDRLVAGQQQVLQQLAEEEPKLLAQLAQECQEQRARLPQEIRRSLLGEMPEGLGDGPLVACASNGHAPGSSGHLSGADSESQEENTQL

[11] = target: 1-phosphatidylinositol 4,5-bisphosphate phosphodiesterase gamma-1 (Homo sapiens, UniProt P19174); assay: Counterscreen for inhibitors of phospholipase C isozymes (PLC-B3): Fluorescence-based biochemical high throughput dose response assay to identify inhibitors of phospholipase C isozymes (PLC-gamma1).
[12] = target: Transthyretin (Homo sapiens, UniProt P02766); assay: Luminescence-based cell-based high throughput dose response assay to identify activators of Transthyretin (TTR) transcription.; format: functional
[13] = CEM21 lymphoblast cell cytotoxicity, dose response, cytotoxicity control for viral fusion inhibitor project, CellTiter-Glo luminescence, cherry-picked (AID 652042); format: functional, cell-based;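 note: potency for signal decrease meaning cytotoxicity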
[14] = system: HEK293; assay: cells; conditions: Homo sapiens
[15] = off-target signal loss in HeLa-CEM21 co-culture – HeLa F-luc CTL cells, cherry-picked, counter-screen for HIV-1 Env fusion inhibitor project, dose response (AID 652040); format: functional, cell-based;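 note: potency for signal decrease marking cytotoxic or nonspecific inhibition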
[16] = ZM109 Env clade C HIV-1 fusion inhibitors, dose response, HeLa effector, CEM target cells, luciferase, cherry-pick (AID 652058); format: functional, cell-based
[17] = target: RNA-editing ligase 1, mitochondrial (Trypanosoma brucei brucei, UniProt P86926); assay: TbREL1 ligase inhibitors, dose response, biochemical, fluorescence, Trypanosoma brucei (AID 1117295); format: functional
RNA-editing ligase 1, mitochondrial, sequence (P86926 whole entry, the tested form may be a part): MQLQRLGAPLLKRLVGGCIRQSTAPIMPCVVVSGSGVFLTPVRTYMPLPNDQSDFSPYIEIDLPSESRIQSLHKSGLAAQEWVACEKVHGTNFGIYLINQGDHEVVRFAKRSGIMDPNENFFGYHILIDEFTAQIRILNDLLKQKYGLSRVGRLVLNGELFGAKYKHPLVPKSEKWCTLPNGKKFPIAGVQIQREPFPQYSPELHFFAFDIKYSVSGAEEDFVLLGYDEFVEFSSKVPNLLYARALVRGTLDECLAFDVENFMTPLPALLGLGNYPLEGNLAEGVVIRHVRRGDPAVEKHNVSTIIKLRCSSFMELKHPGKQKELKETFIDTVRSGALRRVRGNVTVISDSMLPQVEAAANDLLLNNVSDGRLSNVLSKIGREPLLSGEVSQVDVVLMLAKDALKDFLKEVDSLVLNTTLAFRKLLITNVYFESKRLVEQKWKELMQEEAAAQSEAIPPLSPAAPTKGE

[18] = inhibitors of clade B AD8 Env fusion, dose response, cell-based, cherry-pick (AID 652062); format: functional;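 note: luciferase signal from cell-cell fusion driven by HIV-1 clade B AD8 Env; potency is for inhibitors of fusion seen as a drop in luminescence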
[19] = system: HEK293; assay: cells; conditions: Homo sapiens; remark: listed apart in the source
[20] = Luminescence-based dose response cell-based high throughput screening assay for cytotoxic compounds using the IEC-6 intestinal epithelial cell line. [Related pubchem assays: 1858 (Summary AID.), 1825 (Counterscreen.), 1907 (Confirmation screen.)]; format: functional
[21] = inhibitors of HIV Env-driven cell fusion, dose response, cherry-pick (AID 652057); format: functional, cell-based
[22] = microbe, parasite or virus in culture; format: functional; conditions: Mycobacterium tuberculosis
[23] = insulin promoter down-regulators in MIN6 cells, imaging, high-content screening, mouse beta cells (AID 1628); format: functional
[24] = HEK293 cell cytotoxicity, dose response, cytotoxicity control, plate reader, cherry-picked samples (AID 743446); format: functional, cell-based
[25] = cytotoxicity toward NIH3T3 fibroblasts, dose response, counter-screen, cell-based, ATP luminescence, mouse fibroblasts (AID 2010); format: functional;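 note: cells exposed to compound for about 90 hours before reading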
[26] = cytotoxicity in MIN6 insulinoma cells, dose response, cytotoxicity control, cell-based, mouse insulinoma (AID 2122); format: functional;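 note: confirmatory high-throughput counterscreen run to flag cytotoxic compounds; mouse MIN-6 beta cells carrying an insulin promoter eGFP reporter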
[27] = MC4R antagonists, dose response, counter-screen for LGR2 antagonist project, cell-based, plate reader, cherry pick (AID 743444); format: functional;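 note: transfected HEK 293 cells stimulated with alpha-MSH peptide; potency of inhibitors of the alpha-MSH evoked signal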
[28] = LGR2 antagonists, dose response, cell-based, HEK293, CRE-luciferase reporter, cherry pick, set 2 (AID 743343); format: functional;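 note: transfected cells were stimulated with diluted bursicon conditioned medium after compound addition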
[29] = Vero cell cytotoxicity, dose response, cytotoxicity control for Vif-APOBEC3G degradation inhibitor project, Vero cells (AID 1117358); format: functional; conditions: Human immunodeficiency virus 1, Vero
[30] = inhibitors of intracellular T. cruzi replication, confirmation, NIH3T3 host cells, beta-gal luminescence (AID 2044); format: functional, cell-based;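 note: intracellular parasites grown in NIH/3T3 mouse fibroblasts as host cells; luminescent beta-galactosidase reporter signal from transgenic T. cruzi replicating inside host cells; inhibitors lower the luminescence signal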
[31] = HepG2 cell cytotoxicity, dose response, cytotoxicity control, plate reader, cherry-pick, antagonist series (AID 743416); format: functional, cell-based
[32] = target: Cytochrome P450 2C9 (Homo sapiens, UniProt P11712)
Cytochrome P450 2C9, sequence (P11712 whole entry): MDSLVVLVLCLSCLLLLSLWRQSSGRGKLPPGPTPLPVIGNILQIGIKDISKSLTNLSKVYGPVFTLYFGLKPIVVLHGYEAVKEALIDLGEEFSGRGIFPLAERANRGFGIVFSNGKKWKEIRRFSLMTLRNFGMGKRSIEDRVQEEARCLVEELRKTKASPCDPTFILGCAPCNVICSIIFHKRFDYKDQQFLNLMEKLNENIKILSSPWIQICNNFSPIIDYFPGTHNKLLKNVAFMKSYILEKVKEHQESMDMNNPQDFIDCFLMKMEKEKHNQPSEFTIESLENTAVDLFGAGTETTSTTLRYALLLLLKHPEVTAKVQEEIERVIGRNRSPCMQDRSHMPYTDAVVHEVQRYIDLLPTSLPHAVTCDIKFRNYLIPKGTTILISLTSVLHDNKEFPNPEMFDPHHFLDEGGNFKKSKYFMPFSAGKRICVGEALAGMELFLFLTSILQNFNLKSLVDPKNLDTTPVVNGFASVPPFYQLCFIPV

[33] = Dose-response inhibition of insulin secretion in a rat insulinoma line at 5 mM glucose (AID 1117331); format: functional, cell-based; conditions: INS-1E
[34] = target: Metabotropic glutamate receptor 5 (Rattus norvegicus, UniProt P31424); assay: Identification of a glycine sulfonamide based non-MPEP site positive allosteric potentiator (PAM) of mGlu5 (calcium_assay).; format: functional
Metabotropic glutamate receptor 5, sequence (P31424 whole entry): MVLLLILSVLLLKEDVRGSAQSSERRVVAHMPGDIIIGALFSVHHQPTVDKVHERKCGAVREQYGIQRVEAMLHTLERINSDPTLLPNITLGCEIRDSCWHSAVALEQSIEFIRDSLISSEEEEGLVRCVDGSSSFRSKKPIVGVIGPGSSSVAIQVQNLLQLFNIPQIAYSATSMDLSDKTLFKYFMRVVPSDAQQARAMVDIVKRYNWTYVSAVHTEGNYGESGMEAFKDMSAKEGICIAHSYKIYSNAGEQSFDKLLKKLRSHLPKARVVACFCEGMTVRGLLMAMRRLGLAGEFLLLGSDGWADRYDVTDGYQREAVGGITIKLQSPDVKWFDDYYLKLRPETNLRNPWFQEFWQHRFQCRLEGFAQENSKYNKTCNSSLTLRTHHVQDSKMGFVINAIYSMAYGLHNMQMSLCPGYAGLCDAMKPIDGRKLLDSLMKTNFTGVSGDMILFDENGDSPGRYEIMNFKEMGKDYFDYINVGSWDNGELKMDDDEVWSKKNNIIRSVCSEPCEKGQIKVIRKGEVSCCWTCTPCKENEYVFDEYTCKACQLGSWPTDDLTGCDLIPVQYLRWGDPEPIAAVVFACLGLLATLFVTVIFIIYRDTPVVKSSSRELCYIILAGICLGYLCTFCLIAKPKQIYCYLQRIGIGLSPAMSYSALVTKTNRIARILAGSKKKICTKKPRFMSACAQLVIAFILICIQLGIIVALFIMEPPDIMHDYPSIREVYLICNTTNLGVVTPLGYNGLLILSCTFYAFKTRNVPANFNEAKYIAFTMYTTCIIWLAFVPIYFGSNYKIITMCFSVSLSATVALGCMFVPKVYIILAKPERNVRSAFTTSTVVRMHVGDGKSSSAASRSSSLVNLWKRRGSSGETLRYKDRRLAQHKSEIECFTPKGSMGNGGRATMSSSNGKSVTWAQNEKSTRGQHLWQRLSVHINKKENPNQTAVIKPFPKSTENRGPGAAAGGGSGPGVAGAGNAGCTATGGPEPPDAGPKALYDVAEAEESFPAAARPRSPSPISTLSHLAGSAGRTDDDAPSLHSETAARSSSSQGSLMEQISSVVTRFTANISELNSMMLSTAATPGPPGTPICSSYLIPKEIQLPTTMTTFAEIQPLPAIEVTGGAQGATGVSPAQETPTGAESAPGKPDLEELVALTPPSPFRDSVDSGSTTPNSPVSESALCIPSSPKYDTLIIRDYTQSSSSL

[35] = CEM21 cell cytotoxicity, dose response, cytotoxicity control, plate reader, dry powder (AID 687026); format: functional, cell-based
[36] = HIV Env cell-cell fusion inhibitors, dose response, HIV entry, plate reader, dry powder (AID 687023); format: functional, cell-based
[37] = target: T3, Disintegrin and metalloproteinase domain-containing protein 17 (Homo sapiens, UniProt P78536); assay: exosite inhibitors of ADAM17, dose response, biochemical (AID 743260)
T3 sequence (P78536 whole entry, the tested form may be a part): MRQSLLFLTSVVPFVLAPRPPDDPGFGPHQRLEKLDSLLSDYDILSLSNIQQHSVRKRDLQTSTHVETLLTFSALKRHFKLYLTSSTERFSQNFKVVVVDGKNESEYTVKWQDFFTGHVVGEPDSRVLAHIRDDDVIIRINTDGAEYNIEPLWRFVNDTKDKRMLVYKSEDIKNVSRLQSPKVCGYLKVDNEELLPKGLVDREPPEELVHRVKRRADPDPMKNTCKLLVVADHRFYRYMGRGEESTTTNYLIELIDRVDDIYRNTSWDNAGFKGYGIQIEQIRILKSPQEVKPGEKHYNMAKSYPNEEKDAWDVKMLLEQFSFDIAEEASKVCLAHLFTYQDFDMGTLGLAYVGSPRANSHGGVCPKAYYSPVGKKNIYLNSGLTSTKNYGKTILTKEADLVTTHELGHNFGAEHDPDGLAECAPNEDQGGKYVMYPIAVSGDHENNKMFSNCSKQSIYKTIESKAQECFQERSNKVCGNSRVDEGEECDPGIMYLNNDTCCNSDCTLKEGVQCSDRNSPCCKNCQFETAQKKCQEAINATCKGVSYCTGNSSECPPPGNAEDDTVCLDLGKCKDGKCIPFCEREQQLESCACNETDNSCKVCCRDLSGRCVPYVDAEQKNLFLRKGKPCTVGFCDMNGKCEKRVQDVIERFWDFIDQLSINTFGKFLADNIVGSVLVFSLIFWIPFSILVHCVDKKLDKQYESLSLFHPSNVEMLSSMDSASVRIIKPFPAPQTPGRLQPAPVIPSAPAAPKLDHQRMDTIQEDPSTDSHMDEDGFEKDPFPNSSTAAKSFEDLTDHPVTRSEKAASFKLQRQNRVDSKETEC

[38] = ADAM10 inhibitors, peptide cleavage, dose response, biochemical, QFRET (AID 743254);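 note: ADAM10 enzyme with the DM2 quenched FRET peptide as substrate; EDANS fluorescence gain as the protease cuts the substrate; inhibitor potency against ADAM10 proteolytic activity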
[39] = target: T3, Disintegrin and metalloproteinase domain-containing protein 17; assay: ADAM17 protease inhibitors, dose response, counter-screen for ADAM10 exosite inhibitor project, biochemical, quenched FRET substrate (AID 743253)
[40] = P. falciparum 3D7-ScDHODH growth inhibitors, dose response, SYBR Green, dry powder samples (AID 1159570); format: functional, cell-based;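 note: parasite growth measured after 72 hours of compound exposure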
[41] = P. falciparum ATP4 D1247Y mutant growth inhibitors, dose response, NITD609-resistant line, SYBR Green, dry powder (AID 1159571); format: functional, cell-based;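 note: parasites synchronized at ring stage by sorbitol before testing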
[42] = HepG2 cell cytotoxicity, dose response, cytotoxicity control, plate reader, dry powder samples (AID 1159569); format: functional, cell-based;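 note: inhibitor potency with signal falling toward the positive control level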
[43] = P. falciparum Dd2 growth inhibitors, dose response, SYBR Green, dry powder samples (AID 1159566); format: functional, cell-based;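 note: potency for growth inhibition with lower SYBR green DNA signal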
[44] = P. falciparum Dd2 growth inhibitors, dose response, SYBR Green, cherry-picked samples (AID 1159567); format: functional, cell-based
[45] = P. falciparum Dd2 growth inhibitors, dose response, SYBR Green, dry powder samples, set 9 (AID 1159568); format: functional, cell-based
[46] = cytotoxicity in A549 cells, dose response, cytotoxicity control, cell-based, CellTiter-Glo luminescence, cherry-pick (AID 743484); format: functional

Cc1ccc(CNC(=O)CSc2c3c(nc4ccc(Cl)cc24)CCCC3)o1
AC50 [1]: 5.98 µM (active)
AC50 [2]: 37.6 µM (active)
AC50 [3]: 10.7 µM (active)

CCOC(=O)c1c(C)[nH]c(C(=O)OCC(=O)Nc2sccc2C(N)=O)c1C
EC50 [4]: 3.35 µM (active)
EC50 [5]: > 195 µM (not active)
IC50 [6]: 8.54 µM (active)

CCOC(=O)C1(CCOC)CCN(Cc2cnc(-c3cccc(C)c3)nc2)CC1
AC50 [7]: > 30 µM (inactive)
CC50 [8]: > 40 µM (active)

O=C(CCCN1C(=O)/C(=C/c2ccco2)SC1=S)Nc1cccc(C(=O)O)c1
AC50 [9]: > 20 µM (inactive)
IC50 [10]: > 122 µM (inactive)
IC50 [11]: > 122 µM (inactive)

COc1ccc([C@@H]2CC=C(C(=O)O)[C@H](c3ccccc3F)N2S(=O)(=O)c2ccccc2C)cc1
EC50 [12]: > 167 µM (inactive)

CC(C)Cc1ccc(C(C)C(=N)NCCc2ccccc2)cc1 (stereo unspecified)
AC50 [13]: 14.3 µM (active)
EC50 [14]: > 59.7 µM (inactive)
AC50 [15]: 7.77 µM (active)
AC50 [16]: 4.62 µM (active)
IC50 [17]: > 96.6 µM (inactive)
AC50 [18]: 21.6 µM (active)
EC50 [19]: > 59.7 µM (inactive)
IC50 [20]: 3.3 µM (active)
AC50 [21]: 2.78 µM (active)
CC50 [22]: 12.1 µM (active)

Cc1cc(C)c(Cc2c(C)nc3c(C(=O)NCc4ccco4)cnn3c2C)c(C)c1
IC50 [23]: 1.51 µM (active)
AC50 [24]: 50 µM (active)
EC50 [25]: > 60 µM (not active)
IC50 [26]: 1.42 µM (active)
AC50 [27]: 55.6 µM (active)
AC50 [28]: 19.9 µM (active)
CC50 [29]: > 40 µM (active)
EC50 [30]: 2.67 µM (active)
AC50 [31]: 32.9 µM (active)

COc1ccccc1N1CCN(CCCCNC(=O)c2ccc(-c3ccc(C(C)=O)cc3)cc2)CC1
AC50 [32]: inconclusive
IC50 [33]: > 33.3 µM (inactive)

CC(C)N(CC(=O)Nc1ccccc1)S(C)(=O)=O
EC50 [34]: 10 µM (inconclusive)

CCCOc1ccc(S(=O)(=O)NCc2cccnc2)cc1
AC50 [35]: > 70 µM (inactive)
AC50 [36]: 13.1 µM (active) and 17.6 µM (active)

CC(=NNC(=O)CSc1nnc(-c2ccc(C(C)(C)C)cc2)n1-c1ccccc1)c1cccc2ccccc12
IC50 [37]: > 69.5 µM (inactive)
IC50 [38]: > 69.5 µM (inactive)
IC50 [39]: > 69.5 µM (inactive)

CCCNC(=O)N1[C@H](C#N)[C@H](c2ccc(-c3ccccc3F)cc2)[C@@H]1CO
AC50 [40]: 6.61 µM (active)
AC50 [41]: 0.511 µM (active)
AC50 [42]: 1.6 µM (active)
AC50 [43]: 0.377 µM (active)
AC50 [44]: 0.522 µM (active)
AC50 [45]: 0.608 µM (active)

CSc1nc(N)nc(SC2C=CCCC2)c1C#N (stereo unspecified)
AC50 [46]: > 52 µM (inactive)
